PMC3834215, “RedOx Status, Proteasome and APEH: Insights into Anticancer Mechanisms of t10,c12-Conjugated Linoleic Acid Isomer on A375 Melanoma Cells” (PLoS ONE, 2013)

How the values were obtained:
A375 melanoma cells = assay: MTT cell viability, A375; type: cell-based, human; settings: for reduction of cell viability: A375, 24h exposure, 50 to 200 μM
Protocol: (§1) The colorimetric 3-(4,5-dimethylthiazol-2)-2,5-diphenyltetrazolium bromide (MTT) (Sigma Aldrich, Milan) assay was used to quantify cell viability. Briefly, cells were incubated in 96 well microplates in the appropriate complete medium with standardized densities for 24h as pre-incubation process. The medium was removed and replaced by medium containing different doses of the different CLA-isomers for 24h. Following treatment, the medium was removed and the cells were incubated with DMEM w/o red phenol with 0.5 mg/ml MTT for additional 2 to 4h at 37 °C. After removal of the medium and MTT, cells in each plate were incubated with 0.1 M HCl/isopropanol to dissolve the MTT-formazan crystals. Absorbance at 590 nm was recorded with a plate reader (Bio Rad mod 680). The relative number of viable cells was expressed as a percentage of the control.

20S human proteasome = biological target: T1, 20S human proteasome (Homo sapiens, UniProt P28074); assay: Cell-free inhibition of chymotrypsin-like (CT-like) activity of 20S proteasome; type: biochemical; settings: for IC50: 30 min pre-incubation, 37 °C, pH 7.5, N-Suc-LLVT-AMC 0.080 mM, read-out: IC50 on 20S isoform (CT-like activity)
T1 construct: purchased Boston Biochem
Protocol: (§2) The fluorescent substrate N-succinyl-Leu-Leu-Val-Tyr-7-amido-4-methylcoumarin (N-Suc-LLVT-AMC) was used for measurement of the CT-like activity of the proteasome, both in cell free assays and in cancer cell extracts, at a final concentration of 0.080 mM at 37 °C in Tris buffer pH 7.5, following the procedure described in Palmieri et al..
(§3) Protease inhibition activities of CLA isomers and fatty acids were carried out using a fixed amount of commercially available APEH or 20S, 20Si, 26S proteasomes (3-5 nM or 0.12 mg/mL, respectively), and increasing concentrations of fatty acid. Mixtures were pre-incubated for 30min at 37 °C in 50 mM Tris-HCl buffer pH 7.5, before addition of the specific substrate, and the enzymatic activities were followed as described above.

20Si human proteasome = biological target: T2, 20Si human proteasome (Homo sapiens, UniProt P28062); assay: Cell-free inhibition of CT-like activity of 20Si proteasome; type: biochemical; settings: for IC50: 30 min pre-incubation, 37 °C, pH 7.5, N-Suc-LLVT-AMC 0.080 mM, read-out: IC50 on 20Si isoform (CT-like activity)
T2 construct: purchased Boston Biochem
Protocol: The fluorescent substrate N-succinyl-Leu-Leu-Val-Tyr-7-amido-4-methylcoumarin (N-Suc-LLVT-AMC) was used for measurement of the CT-like activity of the proteasome, both in cell free assays and in cancer cell extracts, at a final concentration of 0.080 mM at 37 °C in Tris buffer pH 7.5, following the procedure described in Palmieri et al. [25].

Porcine liver APEH = biological target: T3, Porcine liver APEH (Sus scrofa, UniProt P19205); assay: Cell-free APEH inhibition assay (acetyl-Ala-pNA); type: biochemical
T3 construct: purchased Takara; host or cells: porcine liver
T3 sequence (P19205 1-732): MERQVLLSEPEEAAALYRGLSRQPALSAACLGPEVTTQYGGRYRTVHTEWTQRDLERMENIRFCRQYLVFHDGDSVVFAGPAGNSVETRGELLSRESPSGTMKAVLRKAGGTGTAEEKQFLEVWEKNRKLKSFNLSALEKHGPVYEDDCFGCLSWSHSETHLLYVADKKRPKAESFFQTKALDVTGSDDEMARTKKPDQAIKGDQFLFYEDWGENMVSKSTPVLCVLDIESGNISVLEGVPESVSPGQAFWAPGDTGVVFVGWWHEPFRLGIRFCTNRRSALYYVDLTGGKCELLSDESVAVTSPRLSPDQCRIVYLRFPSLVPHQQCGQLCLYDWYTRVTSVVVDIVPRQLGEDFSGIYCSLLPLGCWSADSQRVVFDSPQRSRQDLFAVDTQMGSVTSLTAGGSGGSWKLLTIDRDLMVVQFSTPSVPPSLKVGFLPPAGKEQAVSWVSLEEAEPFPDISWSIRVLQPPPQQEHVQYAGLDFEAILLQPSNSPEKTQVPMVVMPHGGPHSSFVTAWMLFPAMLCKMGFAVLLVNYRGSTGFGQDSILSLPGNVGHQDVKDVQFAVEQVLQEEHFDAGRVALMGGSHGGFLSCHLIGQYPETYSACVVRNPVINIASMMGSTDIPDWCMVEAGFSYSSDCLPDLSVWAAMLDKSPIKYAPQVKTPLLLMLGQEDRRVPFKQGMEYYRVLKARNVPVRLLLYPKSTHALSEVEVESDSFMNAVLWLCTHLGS
Protocol: (§4) APEH activity was measured spectrophotometrically using the chromogenic substrate acetyl-Ala-pNA (Bachem) as described before. The reaction mixture containing pure APEH or an appropriate amount of cell extract was incubated at 37 °C in 50 mM Tris-HCl, pH 7.5 (Tris Buffer).
as §3

[1] = tested on: A375M metastatic melanoma cells; assay: MTT cell viability, A375M; type: cell-based, human; settings: 24h exposure, 50 to 200 μM
Protocol: as §1

[2] = tested on: HeLa cervical carcinoma cells; assay: MTT cell viability, HeLa; type: cell-based, human; settings: 24h exposure, 50 to 200 μM
Protocol: as §1

human fibroblasts = type: cell-based
Protocol: Human hepatoma cells (HepG2) were seeded (2x10^4cells/cm^2) and maintained for 24h in MEM (Gibco Invitrogen; Milano) medium supplemented with 2 mM L-glutamine, 1% nonessential amino acids and 10% FBS. Colon carcinoma (Caco-2), cervical carcinoma (Hela), glioblastoma (U87), melanoma (A375, A375M) and mammary adenocarcinoma (MCF7, MDA-MB) were seeded (1x10^4cells/cm^2) and grown in DMEM supplemented with 10% FBS, 2 mM L-glutamine. HepG2, Hela, U87, Caco-2, MCF7, MDA-MB, A375 and A375 metastatic melanoma (A375M) cell lines were obtained by ATCC (LCG standards, Milano, Italy). Normal human dermal fibroblast (NDHF) within 8th passage were seeded at a density of 2x10^4 cells/cm^2 and cultured in fibroblast growth medium (FGM-2; Lonza, Milan, Italy) containing 2% FBS, 50 μg/mL gentamycin and amphotericin B, 10μg/mL fibroblast growth factor and insulin. BHK21 cells (kindly donated by Dr. David Y Thomas, McGill University Montreal Canada) were cultured in DMEM/F12, 5% FBS, 1 mM L-glutamine, 200 µg/mL methotrexate, and 100units/mL penicillin-streptomycin. […]
The colorimetric 3-(4,5-dimethylthiazol-2)-2,5-diphenyltetrazolium bromide (MTT) (Sigma Aldrich, Milan) assay was used to quantify cell viability. […] Absorbance at 590 nm was recorded with a plate reader (Bio Rad mod 680). The relative number of viable cells was expressed as a percentage of the control.

caspase 3 in A375 cells = assay: Caspase 3 activity in A375 cells; type: cell-based, human; settings: A375, 24h, doses 50, 100 or 200 μM, dose-dependent, maximum
Protocol: Pro-apoptotic and cytotoxic ability of CLA isomers were assayed by measuring caspase 3 and the activity of lactate dehydrogenase (LDH) in the spent media, respectively [25]. The caspase 3 activity, measured at 37 °C and pH 7.5, was expressed as fold increase compared to the control culture.

[3] = tested on: proteasomal CT-like activity in A375 cells; assay: Proteasomal CT-like activity in A375 cytoplasmic extracts after treatment; type: cell-based, human; settings: for proteasomal CT-like activity inhibited to: 24h
Protocol: as §2
(§5) Following the treatments, cells were washed three times with ice cold phosphate-buffer saline (PBS) and cytosolic extracts were prepared accordingly to a published procedure. Protein concentrations were determined in supernatants by BCA protein assay reagent kit (Pierce). Western blotting analyses were performed as previously described.

[4] = tested on: APEH activity in A375 cells; assay: APEH activity in A375 cytoplasmic extracts after treatment; type: cell-based, human
Protocol: as §4, §5

Bcl-2 in A375 cells = assay: Bcl-2 protein expression by immunoblotting in A375; type: cell-based, human; settings: A375, 24h, 50-200 μM
Protocol: as §5

γGCL mRNA in A375 cells = assay: γGCL mRNA by qRT-PCR in A375; type: cell-based, human; settings: A375, 200 μM, end of time course
APEH mRNA in A375 cells = assay: APEH mRNA by qRT-PCR in A375; type: cell-based, human
Protocol: (§6) mRNA expression levels of APEH and β-5 proteasome subunit were determined in treated or untreated cells to investigate on the functional relationship existing between APEH and proteasome activities and on their involvement in the anticancer activity of CLA.
(§7) Total RNA was isolated from the human cell lines (~10^6 cells aliquots) according to the SV Total RNA Isolation System (Promega) protocol, with an on column DNase I step. Total RNA concentrations were determined using a Qubit® Fluorometer (Invitrogen). RNAs were then reverse transcribed using the Transcriptor First Strand cDNA Synthesis Kit (Roche). 100 ng of reverse transcribed complementary DNA, and its dilution series to calculate the efficacy of primers, were amplified by quantitative real-time PCR (qRT-PCR) on an iCycleriQ™ (Bio-Rad) using 300 nM gene-specific primers, Maxima® SYBR Green/Fluorescein qPCR Master Mix (2X) (Fermentas) and the following PCR conditions: 1 cycle at 95 °C for 10min, and 40 cycles of 95 °C for 15s , 60 °C for 30s, and 72 °C for 30s.
(§8) The expression level of β-actin gene was used as an internal control for normalization (ref gene). Raw cycle threshold values (Ct values) obtained for the target genes were compared to the Ct value obtained for the ref gene. […]

[5] = tested on: β-5 proteasome subunit mRNA in A375 cells; assay: β-5 proteasome subunit mRNA by qRT-PCR in A375; type: cell-based, human
Protocol: as §6, §7, §8

[6] = tested on: intracellular GSH in A375 cells; assay: Intracellular GSH in A375; type: cell-based, human; settings: A375, 24h, 50, 100 or 200 μM
Protocol: Intracellular concentration of reduced and oxidized glutathione (GSH and GSSG, respectively) were quantified using the 5,5'-dithiobis(2-nitrobenzoic acid)-GSSG reductase recycling assay. GSSG content was preliminarily evaluated in cytosolic extracts of treated or untreated cells upon the addition of 10 mM 1-methyl-2-vinylpyridinium trifluoromethanesulfonate (a specific GSH scavenger).

[7] = tested on: MDA-MB mammary adenocarcinoma cells; assay: MTT cell viability, MDA-MB; type: cell-based, human; settings: 24h exposure, 50 to 200 μM
Protocol: as §1

[8] = tested on: all cancer cells (U87, MCF7, MDA-MB, HeLa, Caco2, HepG2, A375M, A375); assay: MTT cell viability, eight cancer cell lines; type: cell-based, human; settings: up to 200 μM, 24h, data not shown
Protocol: as §1

[9] = negative control, data not shown

## CCCCCC/C=C/C=C/CCCCCCCC(=O)O [t9,t11-CLA]
A375 melanoma cells
  reduction of cell viability: about 50%

## CCCCC/C=C\C=C\CCCCCCCCC(=O)O [t10,c12-CLA, trans10,cis12 (t10,c12-CLA)]
20S human proteasome
  IC50: 14.8 ± 2 µM
20Si human proteasome
  IC50: 1.1 ± 0.2 µM
Porcine liver APEH; 37 °C, pH 7.5
  IC50: 110 ± 11.7 µM
Porcine liver APEH; dose-dependent
  maximum inhibition of APEH: about 41%
A375 melanoma cells
  reduction of cell viability: 63%
[1]
  reduction of cell viability: 51%
[2]
  reduction of cell viability: 40%
Human fibroblasts
  toxic effects on fibroblast proliferation: lack of toxic effects
Caspase 3 in A375 cells
  caspase 3 activation compared to the control culture: eightfold increase
[3]; A375, 50 μM, plateau after 8h
  proteasomal CT-like activity plateau, % of starting value: 70%
[3]; A375, 100 μM
  proteasomal CT-like activity inhibited to: 50%
[3]; A375, 200 μM
  proteasomal CT-like activity inhibited to: 25%
[4]; A375, 50 μM, plateau after 8h
  APEH activity plateau, % of starting value: 80%
[4]; A375, 200 μM, time course
  APEH activity plateau, % of starting level: 70%
Bcl-2 in A375 cells
  maximum reduction of Bcl-2 expression: 80%
γGCL mRNA in A375 cells
  down-regulation of γGCL mRNA levels: 1.5 fold
APEH mRNA in A375 cells; A375, 50 μM, time course
  APEH mRNA stable final value vs initial expression level: approximately one-fold lower
APEH mRNA in A375 cells; A375, 200 μM, 24h
  APEH mRNA level: strongly down-regulated
[5]; A375, 50 μM, time course
  β-5 mRNA stable final value vs initial expression level: approximately one-fold lower
[5]; A375, 200 μM, 24h
  proteasome (β-5) mRNA level: strongly down-regulated
[6]
  intracellular GSH: significant decline

## CCCCCC/C=C/C=C\CCCCCCCC(=O)O [c9,t11-CLA, cis9,trans11 (c9,t11-CLA)]
20S human proteasome
  IC50: 31.2 ± 8.8 µM
20Si human proteasome
  IC50: 6.4 ± 1 µM
A375 melanoma cells
  reduction of cell viability: < 40%
[1]
  reduction of cell viability: < 40%
[7]
  reduction of cell viability: < 40%

## CCCCCCCC(=O)O [octanoic acid, reference compound]
20S human proteasome; [9]
  inhibitory effect on 20S CT-like activity: only negligible effects
20Si human proteasome; [9]
  inhibitory effect on 20Si CT-like activity: only negligible effects
[8]
  effect on cell viability: no significant results

## CC(C)C[C@H](NC(=O)[C@H](Cc1ccccc1)NC(=O)c1cnccn1)B(O)O [BTZ, bortezomib, reference compound]
20S human proteasome; plateau of dose-response curve
  inhibition reached, 20S: about 60%
A375 melanoma cells; Homo sapiens, A-375, read-out: IC50 (dose accountable for 50% decrease of cell viability), A375, 24h
  IC50: 0.01 ± 2e-05 µM
